Earlier results on seven compounds are cited in publication PMC8277557 (Bioorganic & Medicinal Chemistry Letters, 2021).

Series [1] has as its system CoV-2 3CLpro. The settings on record: for IC50: read-out: Literature IC50, CoV-2 3CLpro.
Series [2] addresses CoV-1 3CLpro.
The conditions of series [3]: in vivo.

Where two headings read alike, the source gives them in different places.

For `O=C[C@H](C[C@@H]1CCNC1=O)NC(=O)[C@H](Cc1cccc(F)c1)NC(=O)c1cc2ccccc2[nH]1` [Compound 11b], the IC50 in series [1] (ref [20]) is 0.04 ± 0.002 µM.
As for `CCCC[C@@H](C=O)NC(=O)[C@H](CC(C)C)NC(=O)OCc1ccccc1` [Calpeptin], the IC50 in series [1] (ref [16]) is 10.7 ± 0.28 µM; in series [1] (ref [31]) it was 4.81 ± 0.18 µM.
Regarding Boceprevir, the IC50 in series [1] (ref [16]) is 4.13 ± 0.61 µM; in series [1] (ref [29]) it was 5.4 ± 1.53 µM.
Take `CCOC(=O)/C=C/[C@H](C[C@@H]1CCNC1=O)NC(=O)[C@H](CC(C)C)NC(=O)[C@@H](NC(=O)OCc1ccccc1)C(C)C` [Compound 3]: the inhibitory constant (Ki) in series [2] (read-out: Literature Ki, CoV-1 3CLpro, ref [19]) is 0.66 µM.
With `CCOC(=O)/C=C/[C@H](C[C@@H]1CCNC1=O)NC(=O)[C@@H](CC(=O)[C@@H](NC(=O)c1cc(C)on1)C(C)C)Cc1ccc(F)cc1` [Rupintrivir], the “activity against SARS-CoV-2 3CLpro” value in series [1] (ref [16], [19]) is “inactive”. Besides, in series [2], the “activity against SARS-CoV-1 3CLpro” value was “inactive”.
On to `CC(C)C[C@H](NC(=O)OCc1ccccc1)C(=O)N[C@@H](C[C@@H]1CCNC1=O)C(=O)c1nc2ccccc2s1` [Compound 25c], for which, in series [2] (read-out: Literature IC50), the IC50 is 21 µM.
Consider `C[C@@H](OC(C)(C)C)[C@H](NC(=O)OCc1ccccc1)C(=O)N[C@@H](CC1CCCCC1)C(=O)N[C@H](C=O)C[C@@H]1CCNC1=O` [TG-0205221], for which the “pharmacokinetic profile in rodents” value in series [3] was “favourable pharmacokinetic profile”.
